Experimental data: article PMC4604124, “In Vitro Characterization of the Pharmacological Properties of the Anti-Cancer Chelator, Bp4eT, and Its Phase I Metabolites” (PLoS ONE, 2015)
Several values for one entry are separate records, joined by “and”; a condition that tells them apart may be missing. Identical values can stand only once.

Experiments:
Format in all cases: cell-based, human
[1] = test system: labile iron pool of MCF-7 cells; assay: Calcein-AM assay, access to the labile iron pool; set-up: Calcein fluorescence: unit not given here; details: 10 μM; for Calcein fluorescence: mean (průměr)
Protocol: These experiments were performed according to Glickstein et al. with slight modifications. The MCF-7 cells were seeded in 96-well plates (10,000 cells/well) and allowed to adhere for 24 h/37°C. Cells were loaded with iron using the cellular iron donor, ferric ammonium citrate (530 μg/mL), 24 h prior to the experiment, and then washed. To prevent potential interference, especially with regard to various trace elements, the medium was replaced with ADS buffer (prepared using Millipore water supplemented with 116 mM NaCl, 5.3 mM KCl, 1 mM CaCl2, 1.2 mM MgSO4, 1.13 mM NaH2PO4, 5 mM D-glucose, and 20 mM HEPES, pH 7.4). Cells were then loaded with 2 μM of the cell-permeable calcein green acetoxymethyl ester (calcein-AM; Molecular Probes, Oregon, USA) for 30 min/37°C and washed. Cellular esterases cleave the acetoxymethyl groups to form the cell membrane-impermeable compound, calcein green. The fluorescence of calcein green is quenched upon binding iron. The intracellular fluorescence (λex = 488 nm; λem = 530 nm) of calcein green was then followed as a function of time (10 min after the addition of 10 μM Bp4eT or its metabolites) at 37°C using the Tecan Infinite 200M plate reader. The iron chelation efficacy of the metabolites in cells was expressed as a percentage of the efficacy of the parent chelator, Bp4eT (100%).

[2] = Viability (viabilita) used to normalise caspase activity; details: human, MCF-7 cells, kontrola = 100;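 note: compound tested at 100 nM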
Excerpt: Supplement pone.0139929.s002.zip/caspases activity.xlsx, sheet "results_viability"

[3] = test system: MCF-7 cells prelabeled with 59Fe2-transferrin; assay: Mobilization (efflux) of cellular 59Fe; set-up: Efflux 59Fe / Efflux 59Fe, Ave: unit not given here
Excerpt: Human transferrin (Sigma) was labeled with ^56Fe or ^59Fe (PerkinElmer, Massachusetts, USA) to produce ^56Fe2-transferrin or ^59Fe2-transferrin (^59Fe2-Tf), respectively, with a final specific activity of 500 pCi/pmol Fe, as previously described. Unbound ^59Fe was removed by exhaustive vacuum dialysis against a large excess of 0.15 M NaCl buffered to pH 7.4 with 1.4% NaHCO3 by standard methods.
To examine the ability of studied compounds to mobilize cellular ^59Fe from MCF-7 cells, iron efflux experiments were performed using established techniques. In brief, after pre-labeling confluent MCF-7 cells on 6-well plates with 0.75 μM ^59Fe2-Tf for 3 h/37°C, the cells were washed four times with ice-cold PBS and then subsequently incubated with 25 μM of Bp4eT or its metabolites for 3 h/37°C. The overlying medium containing released ^59Fe was then decanted from the cells. Radioactivity was measured in both the cells and the supernatant using a γ-scintillation counter (Wallac Wizard 3, Turku, Finland).

caspases 3/7 = assay: Caspase activity, luminescent kit, caspases 3/7; details: for kaspáza (3) a 7, raw signal / kaspáza (3) a 7, signal / viabilita: individual experiments by date; for kaspáza (3) a 7, raw signal, průměry / kaspáza (3) a 7, % kontroly / kaspáza (3) a 7, signal / viabilita, průměry: mean; for kaspáza (3) a 7, % kontroly / kaspáza (3) a 7, signal / viabilita / kaspáza (3) a 7, signal / viabilita, průměry: normalised to viability
Protocol: To assess the effect of the compounds on caspase activity, MCF-7 cells were incubated with 100 nM Bp4eT or its metabolites for 3, 24 or 72 h/37°C in 96-well plates, as described above. The cells were then lysed by adding 100 μL of cold lysis buffer (100 mM HEPES, 10 mM CHAPS, 10 mM D-L-dithiothreitol, pH 7.4) to 100 μL of medium in each well. Lysates were immediately frozen at -80°C. Thawed lysates were used to assess caspase activity using luminescent kits for caspases 3/7, 8 and 9 (Promega, Madison, WI, USA). The luminescence was measured using the Tecan Infinite 200M plate reader. Caspase activity in the experimental groups was corrected according to the cellular viability of each group and expressed as a percentage of activity of the untreated control (100%).

CCNC(=O)NN=C(c1ccccc1)c1ccccn1 [Z-Bp4eS, 2-benzoylpyridine 4-ethylsemicarbazone]
Calcein fluorescence ([1]; 30 sec): 11.525 | Calcein fluorescence ([1]; 60 sec): 8.244 | Calcein fluorescence ([1]; 90 sec): 15.042 | Calcein fluorescence ([1]; 120 sec): 10.528 | Calcein fluorescence ([1]; 300 sec): 1.225 | Calcein fluorescence ([1]; 600 sec): 2.196 | Chelation efficacy: fluorescence of free calcein at t = 600 s as percentage of Bp4eT ([1]; MCF-7, mean of 6 experiments): 0.9956% | Fluorescence of free calcein at 600 s as percentage of Bp4eT ([1]; MCF-7, single experiments): 0% and 5.974% | viability at 3 h, 100 nM ([2]; 3 hodiny): 97.4% | viability at 24 h, 100 nM ([2]; 24 hodin): 99.5% | viability at 72 h, 100 nM ([2]; 72 hodin): 93.5% | Efflux 59Fe, Ave ([3]; average of all replicates): 3.856 | Efflux 59Fe ([3]; single replicate (three per date)): 5.4747 and 4.265 and 4.3539 and 3.0981 and 3.2068 and 3.9182 and 3.1551 and 3.9954 and 3.2369 | kaspáza (3) a 7, raw signal (caspases 3/7; 3 hodiny): 1797.5 and 1540 and 1728.5 and 1382 | kaspáza (3) a 7, raw signal, průměry (caspases 3/7; 3 hodiny): 1612 | kaspáza (3) a 7, % kontroly (caspases 3/7; 3 hodiny): 100.57 % kontroly | kaspáza (3) a 7, signal / viabilita (caspases 3/7; 3 hodiny): 18.4535 and 15.81 and 17.7452 and 14.1879 | kaspáza (3) a 7, signal / viabilita, průměry (caspases 3/7; 3 hodiny): 16.5491 | kaspáza (3) a 7, raw signal (caspases 3/7; 24 hodin): 2520 and 2115 and 2668.5 and 2356.5 | kaspáza (3) a 7, raw signal, průměry (caspases 3/7; 24 hodin): 2415 | kaspáza (3) a 7, % kontroly (caspases 3/7; 24 hodin): 106.11 % kontroly | kaspáza (3) a 7, signal / viabilita (caspases 3/7; 24 hodin): 25.3376 and 21.2655 and 26.8307 and 23.6936 | kaspáza (3) a 7, signal / viabilita, průměry (caspases 3/7; 24 hodin): 24.2818 | kaspáza (3) a 7, raw signal (caspases 3/7; 72 hodin): 7018 and 6964.5 and 7418.5 and 7469 | kaspáza (3) a 7, raw signal, průměry (caspases 3/7; 72 hodin): 7217.5 | kaspáza (3) a 7, % kontroly (caspases 3/7; 72 hodin): 104.65 % kontroly | kaspáza (3) a 7, signal / viabilita (caspases 3/7; 72 hodin): 75.0267 and 74.4548 and 79.3083 and 79.8482 | kaspáza (3) a 7, signal / viabilita, průměry (caspases 3/7; 72 hodin): 77.1595
